Laboratory results: patent publication US6737383B1, “Herbicidal oxadiazolidines” (priority 1999, dated 2004)

Columns and labels:
surinam grass = assay: Test B pre/postemergence surinam grass; type: in vivo, Brachiaria decumbens
Outline: (§1)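 Herbicidal effect was estimated by eye on a ten-point control scale after plants spent twelve to sixteen days in a greenhouse following soil or foliar treatment. Foliar sprays targeted plants at one to four leaves; all doses were formulated in a non-phytotoxic solvent with surfactant.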

corn = assay: Test B pre/postemergence corn; type: in vivo, Zea mays
Outline: as §1

blackgrass = assay: Test B pre/postemergence blackgrass; type: in vivo, Alopecurus myosuroides
Outline: as §1

velvetleaf = assay: Test B pre/postemergence velvetleaf; type: in vivo, Abutilon theophrasti
Outline: as §1

morningglory = assay: Test B pre/postemergence morningglory; type: in vivo, Ipomoea hederacea
Outline: as §1

rice = assay: Test B flood test rice; type: in vivo, Oryza sativa; conditions: Pre-emergence
Outline: (§2)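 Plants were grown to the 2-leaf stage before treatment with test chemical, then held in a greenhouse for twelve to sixteen days. Injury was visually rated against untreated controls on a 0–10 scale, where 0 is no effect and 10 is complete control.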

bedstraw = assay: Test B pre/postemergence bedstraw; type: in vivo, Galium aparine
Outline: as §1

rape = assay: Test B pre/postemergence rape; type: in vivo, Brassica napus
Outline: as §1

purple nutsedge = assay: Test B pre/postemergence purple nutsedge; type: in vivo, Cyperus rotundus
Outline: as §1

sugar beet = assay: Test B pre/postemergence sugar beet; type: in vivo, Beta vulgaris
Outline: as §1

wild oat = assay: Test B pre/postemergence wild oat; type: in vivo, Avena fatua
Outline: as §1

cocklebur = assay: Test B pre/postemergence cocklebur; type: in vivo, Xanthium strumarium
Outline: as §1

soybean = assay: Test B pre/postemergence soybean; type: in vivo, Glycine max
Outline: as §1

smallflower flatsedge = assay: Test B flood test smallflower flatsedge; type: in vivo, Cyperus difformis; conditions: Pre-emergence
Outline: as §2

pigweed = assay: Test B pre/postemergence pigweed; type: in vivo, Amaranthus retroflexus
Outline: as §1

bamyardgrass = assay: Test B flood test barnyardgrass; type: in vivo, Echinochloa crus-galli; conditions: Pre-emergence
Outline: as §2

[1] = Postemergence, Rate 125 g/ha, scale 0 to 10, 0 is no effect, 10 is complete control
[2] = Preemergence, Rate 62 g/ha, scale of 0 to 10 where 0 is no effect and 10 is complete control
[3] = Preemergence, Rate 250 g/ha, scale of 0 to 10 where 0 is no effect and 10 is complete control
[4] = Preemergence, Rate 500 g/ha, scale of 0 to 10 where 0 is no effect and 10 is complete control
[5] = Rate 62 g/ha, Postemergence, scale 0 to 10, 0 no effect, 10 complete control
[6] = Rate 250 g/ha, Postemergence, scale of 0 to 10 where 0 is no effect and 10 is complete control
[7] = Rate 500 g/ha, Postemergence, scale 0 to 10, 0 no effect, 10 complete control
[8] = Rate 1000 g/ha, scale 0 to 10 (0 no effect, 10 complete control)
[9] = Rate 125 g/ha, flood test species, scale 0 to 10 where 0 is no effect and 10 is complete control
[10] = Rate 250 g/ha, flood-test species, scale 0 to 10, 0 is no effect, 10 is complete control
[11] = Rate 500 g/ha, flood test species, scale 0 to 10 (0 no effect, 10 complete control)

CC(C)N(C(=O)n1oc(=O)n(-c2ccc3ccccc3c2)c1=O)c1ccccc1 [Compound 332]
2: Plant response rating, Soybean (soybean; [1]) | Soybean plant response rating (soybean; [5])
4: Plant response rating, Redroot pigweed (pigweed; [7])
1: Plant response rating, Redroot pigweed (pigweed; [1])
0: Plant response rating, B. signalgrass (surinam grass; [1]) | B. signalgrass plant response rating (surinam grass; [2]) | B. signalgrass plant response rating (0 to 10 scale, 0 is no effect, 10 is complete control) (surinam grass; Preemergence, Rate 125 g/ha) | B. signalgrass plant response rating (surinam grass; [3]) | B. signalgrass plant response rating (surinam grass; [4]) | B. signalgrass plant response rating (surinam grass; [5]) | Plant response rating, B. signalgrass (surinam grass; [6]) | Plant response rating, B. signalgrass (surinam grass; [7]) | Plant response rating, Corn (corn; [1]) | Corn plant response rating (corn; [2]) | Corn plant response rating (0 to 10 scale) (corn; Preemergence, Rate 125 g/ha) | Corn plant response rating (corn; [3]) | Corn plant response rating (corn; [4]) | Corn plant response rating (corn; [5]) | Plant response rating, Corn (corn; [7]) | Plant response rating, Blackgrass (blackgrass; [1]) | Blackgrass plant response rating (blackgrass; [2]) | Blackgrass plant response rating (0 to 10 scale) (blackgrass; Preemergence, Rate 125 g/ha) | Blackgrass plant response rating (blackgrass; [3]) | Blackgrass plant response rating (blackgrass; [4]) | Blackgrass plant response rating (blackgrass; [5]) | Plant response rating, Blackgrass (blackgrass; [6]) | Plant response rating, Blackgrass (blackgrass; [7]) | Plant response rating, Velvetleaf (velvetleaf; [1]) | Velvetleaf plant response rating (velvetleaf; [2]) | Velvetleaf plant response rating (0 to 10 scale) (velvetleaf; Preemergence, Rate 125 g/ha) | Velvetleaf plant response rating (velvetleaf; [3]) | Velvetleaf plant response rating (velvetleaf; [4]) | Velvetleaf plant response rating (velvetleaf; [5]) | Plant response rating, Velvetleaf (velvetleaf; [7]) | Plant response rating, Morningglory (morningglory; [1]) | Morningglory plant response rating (morningglory; [2]) | Morningglory plant response rating (0 to 10 scale) (morningglory; Preemergence, Rate 125 g/ha) | Morningglory plant response rating (morningglory; [3]) | Morningglory plant response rating (morningglory; [4]) | Morningglory plant response rating (morningglory; [5]) | Plant response rating, Morningglory (morningglory; [7]) | Rice plant response rating (rice; [8]) | Rice plant response rating (rice; [9]) | Rice plant response rating (rice; [10]) | Rice plant response rating (rice; [11]) | Plant response rating, Bedstraw (bedstraw; [1]) | Bedstraw plant response rating (bedstraw; [2]) | Bedstraw plant response rating (0 to 10 scale) (bedstraw; Preemergence, Rate 125 g/ha) | Bedstraw plant response rating (bedstraw; [3]) | Bedstraw plant response rating (bedstraw; [5]) | Plant response rating, Bedstraw (bedstraw; [6]) | Plant response rating, Rape (rape; [1]) | Rape plant response rating (rape; [2]) | Rape plant response rating (0 to 10 scale) (rape; Preemergence, Rate 125 g/ha) | Rape plant response rating (rape; [3]) | Rape plant response rating (rape; [4]) | Rape plant response rating (rape; [5]) | Plant response rating, Rape (rape; [7]) | Plant response rating, Nutsedge (purple nutsedge; [1]) | Nutsedge plant response rating (purple nutsedge; [2]) | Nutsedge plant response rating (0 to 10 scale) (purple nutsedge; Preemergence, Rate 125 g/ha) | Nutsedge plant response rating (purple nutsedge; [3]) | Nutsedge plant response rating (purple nutsedge; [4]) | Nutsedge plant response rating (purple nutsedge; [5]) | Plant response rating, Nutsedge (purple nutsedge; [7]) | Plant response rating, Sugarbeets (sugar beet; [1]) | Sugarbeets plant response rating (sugar beet; [2]) | Sugarbeets plant response rating (0 to 10 scale) (sugar beet; Preemergence, Rate 125 g/ha) | Sugarbeets plant response rating (sugar beet; [3]) | Sugarbeets plant response rating (sugar beet; [4]) | Sugarbeets plant response rating (sugar beet; [5]) | Plant response rating, Sugarbeets (sugar beet; [7]) | Plant response rating, Wild oats (wild oat; [1]) | Wild oats plant response rating (wild oat; [2]) | Wild oats plant response rating (0 to 10 scale) (wild oat; Preemergence, Rate 125 g/ha) | Wild oats plant response rating (wild oat; [3]) | Wild oats plant response rating (wild oat; [4]) | Wild oats plant response rating (wild oat; [5]) | Plant response rating, Wild oats (wild oat; [7]) | Plant response rating, Cocklebur (cocklebur; [1]) | Cocklebur plant response rating (cocklebur; [2]) | Cocklebur plant response rating (0 to 10 scale) (cocklebur; Preemergence, Rate 125 g/ha) | Cocklebur plant response rating (cocklebur; [3]) | Cocklebur plant response rating (cocklebur; [4]) | Cocklebur plant response rating (cocklebur; [5]) | Plant response rating, Cocklebur (cocklebur; [7]) | Soybean plant response rating (soybean; [2]) | Soybean plant response rating (0 to 10 scale) (soybean; Preemergence, Rate 125 g/ha) | Soybean plant response rating (soybean; [3]) | Soybean plant response rating (soybean; [4]) | S. Flatsedge plant response rating (smallflower flatsedge; [8]) | S. Flatsedge plant response rating (smallflower flatsedge; [9]) | S. Flatsedge plant response rating (smallflower flatsedge; [10]) | S. Flatsedge plant response rating (smallflower flatsedge; [11]) | Redroot pigweed plant response rating (pigweed; [2]) | Redroot pigweed plant response rating (0 to 10 scale) (pigweed; Preemergence, Rate 125 g/ha) | Redroot pigweed plant response rating (pigweed; [3]) | Redroot pigweed plant response rating (pigweed; [5]) | Barnyardgrass plant response rating (bamyardgrass; [8]) | Barnyardgrass plant response rating (bamyardgrass; [9]) | Barnyardgrass plant response rating (bamyardgrass; [10]) | Barnyardgrass plant response rating (bamyardgrass; [11])
3: Plant response rating, Soybean (soybean; [7]) | Redroot pigweed plant response rating (pigweed; [4])
